Source: PubChem BioAssay AID2060622 (Molecular Pharmacology Branch, DTP, NCI, 2025)
pIC50: −log10 of the molar value.

System: 242566-281-R-J2-PDC complex spheroid viability
Assay: Anticancer human tumor 242566-281-R-J2-PDC patient-derived pancreatic carcinoma cell line growth inhibition [CLK]
Details: for pIC50: curve of first compound; for viability, T/C: stronger effect = lower value; active = viability on the fitted dose curve at most 10% of control; inactive = the rest
Summary of the method: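 Multi-cell-type spheroids combined patient-derived tumor cells with HUVEC endothelial cells and human mesenchymal stem cells. Paired agents were dosed in half-log steps down from about clinical Cmax, or from 10 microM where Cmax was unknown.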
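Note: spheroids exposed to compounds for 7 days before readout.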
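Throughout, for viability, T/C: 100% = DMSO vehicle control wells.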

COc1ccc([C@@H](O)c2cc(-c3ncnc4cc(N5CCOCC5)ccc34)c(F)cc2Cl)nn1 + CNC(=O)c1ccc(Nc2nc(OC3CCCC3)c3c(-c4ccc5nc(C)oc5c4)c[nH]c3n2)c(OC)c1
inactive: viability, T/C (second compound 0.0316 µM, first compound 0.0316 µM) 106% | viability, T/C (second compound 0.0316 µM, first compound 0.1 µM) 96.5% | viability, T/C (second compound 0.0316 µM, first compound 0.316 µM) 89.5% | viability, T/C (second compound 0.0316 µM, first compound 1 µM) 141% | viability, T/C (second compound 0.0316 µM, first compound 3.16 µM) 92.4% | viability, T/C (second compound 0.0316 µM, first compound 10 µM) 66.4% | viability, T/C (second compound 0.1 µM, first compound 0.0316 µM) 88.9% | viability, T/C (second compound 0.1 µM, first compound 0.1 µM) 103% | viability, T/C (second compound 0.1 µM, first compound 0.316 µM) 89.7% | viability, T/C (second compound 0.1 µM, first compound 1 µM) 102% | viability, T/C (second compound 0.1 µM, first compound 3.16 µM) 89.2% | viability, T/C (second compound 0.1 µM, first compound 10 µM) 69.9% | viability, T/C (second compound 0.316 µM, first compound 0.0316 µM) 91.7% | viability, T/C (second compound 0.316 µM, first compound 0.1 µM) 85.7% | viability, T/C (second compound 0.316 µM, first compound 0.316 µM) 72% | viability, T/C (second compound 0.316 µM, first compound 1 µM) 81.1% | viability, T/C (second compound 0.316 µM, first compound 3.16 µM) 76.9% | viability, T/C (second compound 0.316 µM, first compound 10 µM) 55% | viability, T/C (second compound 1 µM, first compound 0.0316 µM) 69.2% | viability, T/C (second compound 1 µM, first compound 0.1 µM) 62.6% | viability, T/C (second compound 1 µM, first compound 0.316 µM) 57.7% | viability, T/C (second compound 1 µM, first compound 1 µM) 51.6% | viability, T/C (second compound 1 µM, first compound 3.16 µM) 53.1% | viability, T/C (second compound 1 µM, first compound 10 µM) 36.3% | viability, T/C (second compound 3.16 µM, first compound 0.0316 µM) 54.5% | viability, T/C (second compound 3.16 µM, first compound 0.1 µM) 51.9% | viability, T/C (second compound 3.16 µM, first compound 0.316 µM) 47.2% | viability, T/C (second compound 3.16 µM, first compound 1 µM) 39.9% | viability, T/C (second compound 3.16 µM, first compound 3.16 µM) 40.2% | viability, T/C (second compound 3.16 µM, first compound 10 µM) 33.5% | viability, T/C (second compound 10 µM, first compound 0.0316 µM) 51.3% | viability, T/C (second compound 10 µM, first compound 0.1 µM) 47.5% | viability, T/C (second compound 10 µM, first compound 0.316 µM) 46.5% | viability, T/C (second compound 10 µM, first compound 1 µM) 43.2% | viability, T/C (second compound 10 µM, first compound 3.16 µM) 41.9% | viability, T/C (second compound 10 µM, first compound 10 µM) 32.5%
5.72: pIC50 (second compound 1 µM)
6.89: pIC50 (second compound 3.16 µM)
> 7.50: pIC50 (second compound 10 µM)
< 5.00: pIC50 (second compound 0.0316 µM) | pIC50 (second compound 0.1 µM) | pIC50 (second compound 0.316 µM)
